The values below come from patent publication US20160038526A1, “TREATMENT OF PROSTATE CANCER” (THOMAS JEFFERSON UNIVERSITY, priority 2012, published 2016).

The target of one assay is Stat3 (Homo sapiens, UniProt P40763). As to the kind of experiment: IL-6-induced nuclear translocation of Stat3 in DU145 cells (immunofluorescence). The assay is classed as cell-based. Particulars: 2 hours pretreatment, 10 nmol/L IL-6 30 minutes. Set-up: endogenous in cells; host or cells: DU145. The procedure:
DU145 prostate cancer cells were pretreated with N6BAP or vehicle (DMSO) for 2 hours and then stimulated with 10 nmol/L IL-6 for 30 minutes. Cells were fixed with 100% methanol for 15 min and subsequently permeabilized with 0.1% Triton X-100 in PBS (pH 7.4). After blocking with 2% bovine serum albumin in PBS, cells were incubated with an antibody specific for Stat3 at 4° C. for 2 hours. Cells were then washed with PBS and incubated with FITC-conjugated secondary antibody (Jackson ImmunoResearch) at room temperature for 1 hour. The images were taken by using an inverted fluorescence microscopy (Carl Zeiss).

The next assay deals with T1, Stat5a (Homo sapiens, UniProt P42229).
T1 sequence (P42229 1-794): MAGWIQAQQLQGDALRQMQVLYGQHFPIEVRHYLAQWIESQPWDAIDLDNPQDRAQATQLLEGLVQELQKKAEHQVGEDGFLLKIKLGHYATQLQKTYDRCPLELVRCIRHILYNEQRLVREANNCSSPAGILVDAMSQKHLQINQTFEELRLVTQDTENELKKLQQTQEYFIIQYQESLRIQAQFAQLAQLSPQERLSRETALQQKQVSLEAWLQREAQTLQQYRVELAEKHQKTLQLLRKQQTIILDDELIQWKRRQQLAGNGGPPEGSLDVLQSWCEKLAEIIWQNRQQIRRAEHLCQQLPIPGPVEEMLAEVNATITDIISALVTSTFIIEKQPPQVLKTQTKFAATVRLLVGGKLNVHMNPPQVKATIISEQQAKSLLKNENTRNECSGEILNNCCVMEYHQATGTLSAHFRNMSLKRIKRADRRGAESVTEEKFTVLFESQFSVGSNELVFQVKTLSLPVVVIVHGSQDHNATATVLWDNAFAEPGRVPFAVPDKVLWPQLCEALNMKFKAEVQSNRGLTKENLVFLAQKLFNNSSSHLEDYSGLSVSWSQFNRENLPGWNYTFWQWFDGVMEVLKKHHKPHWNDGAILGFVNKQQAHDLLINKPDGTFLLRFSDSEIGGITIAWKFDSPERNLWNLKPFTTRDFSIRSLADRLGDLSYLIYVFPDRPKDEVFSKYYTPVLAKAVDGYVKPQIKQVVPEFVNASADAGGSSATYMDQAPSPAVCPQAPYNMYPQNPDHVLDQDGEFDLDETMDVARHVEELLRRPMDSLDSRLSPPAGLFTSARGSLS
The assay is described as follows: Stat5 dimerization assay (FLAG-/MYC-tagged Stat5a co-immunoprecipitation) in PC-3 cells. The assay is classed as cell-based. Set-up: expressed in transfected cells; host or cells: PC-3. Particulars: 2 hours pretreatment, hPrl 10 nM 30 minutes. The procedure: FLAG-tagged Stat5a and MYC-tagged Stat5a were generated as follows. Plasmid pCMV3-FLAG-Stat5a, pCMV3-MYC-Stat5a and pPrlR were co-transfected using FuGENE6 (Roche) into PC-3 cells (2 μg of each plasmid per 1×10^7 cells). The cells were starved for 20 hours, pretreated with N6BAP for 2 hours, then stimulated with hPrl (10 nM) in RPMI 1640 without serum for 30 minutes. The cell lysates were immunoprecipitated with 25 μl anti-FLAG M2 […] affinity gel (2 μg/ml, Sigma), anti-MYC pAb (1 μg/ml, Upstate) or normal rabbit serum (NRS). The primary antibodies were used in the immunoblottings at the following concentrations: anti-FLAG pAb (1:1000; Stratagene), anti-MYC mAb (1:1000; Sigma), anti-Stat5a/b mAb (1:250) (Transduction Laboratories) detected by horseradish peroxidase-conjugated secondary antibodies.
Lanes 1, 2, 4, 6, 8, 10, 12, 14 and 16 represent cells stimulated with human prolactin (Prl) for 30 minutes which induces dimerization of Stat5. Two hours prior to Prl-stimulation, the cells had been treated with DMSO (lanes 1-4), the control compound C5 (lanes 5 and 6) or N6BAP (lanes 7-16) to test whether the Stat5a/b-inhibitor compound, N6BAP, would be able to inhibit dimerization of Stat5. […] It should be noted the drug effect in this study was not due to cell apoptosis induction, as the treatment time was only 2 hours. […]

Another assay concerns Stat5a/b. The assay is described as follows: Clinical prostate cancers ex vivo in explant organ cultures: nuclear Stat5a/b immunohistochemistry. The assay is classed as cell-based, human. Particulars: 7 days, N6BAP 5, 10, 25, 50 and 100 μM; C5 100 m. The procedure:
The specimens comprised de-identified excess tissue obtained after the completion of pathology diagnosis. A zero-sample prior to organ culture was formalin-fixed for each individual prostate cancer for the analysis of the nuclear Stat5a/b status. The prostate organ cultures were performed as described earlier (Ahonen et al., Endocrinology (2002), 143:228-238). Briefly, prostate cancer tissue was cut into approximately 1 mm^3 pieces in a plain culture medium and transferred onto lens papers lying on stainless steel grids in petri dishes. The medium was phenol-free medium 199 with Earle's salts (Sigma) containing dialyzed 5% fetal calf serum, G-penicillin (100 IU/ml), streptomycin sulfate ([…]), and glutamine (100 μg/ml). […] Tissue explants were cultured in a medium containing the N6BAP or control compound C5 at indicated concentrations (C5: […]; N6BAP: 5, 10, 25, 50 and 100 μM) 7 days, after which the explants were fixed in formalin and analyzed for Stat5a/b activation and viability of prostate cancer epithelial compartment. Viability of the epithelial cells in the prostate cancer explants at the end of the cultures were scored by counting the viable epithelial cells per explant.
Nuclear Stat5a/b indexes were determined by counting the Stat5-positive cells per 500 epithelial cells in the cultured explants in each treatment group.

Sequence of Stat3 (P40763 whole entry, species assumed): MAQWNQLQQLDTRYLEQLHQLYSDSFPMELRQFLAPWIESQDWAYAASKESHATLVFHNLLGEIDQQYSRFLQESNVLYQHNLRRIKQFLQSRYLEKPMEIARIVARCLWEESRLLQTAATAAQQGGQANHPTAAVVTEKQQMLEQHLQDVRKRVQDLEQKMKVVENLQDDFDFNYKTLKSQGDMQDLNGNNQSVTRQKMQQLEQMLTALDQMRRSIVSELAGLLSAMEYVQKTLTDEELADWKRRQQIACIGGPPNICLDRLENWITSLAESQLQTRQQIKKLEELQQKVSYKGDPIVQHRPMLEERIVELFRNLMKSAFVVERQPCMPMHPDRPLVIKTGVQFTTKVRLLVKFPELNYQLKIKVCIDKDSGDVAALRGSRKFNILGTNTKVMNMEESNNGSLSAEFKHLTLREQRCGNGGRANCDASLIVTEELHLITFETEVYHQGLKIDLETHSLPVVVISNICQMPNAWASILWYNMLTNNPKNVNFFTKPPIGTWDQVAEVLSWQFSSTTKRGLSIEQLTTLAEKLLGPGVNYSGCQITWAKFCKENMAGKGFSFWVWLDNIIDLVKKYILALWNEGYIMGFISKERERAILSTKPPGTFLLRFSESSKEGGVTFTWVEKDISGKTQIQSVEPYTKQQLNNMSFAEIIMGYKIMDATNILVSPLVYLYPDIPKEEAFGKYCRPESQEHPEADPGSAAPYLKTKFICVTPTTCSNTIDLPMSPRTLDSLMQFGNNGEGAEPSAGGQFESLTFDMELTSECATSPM

With `Cc1cc(Nc2nc(N[C@@H](C)c3ncc(F)cn3)ncc2Cl)n[nH]1` [AZD1480, reference compound], the “nuclear translocation of IL-6-induced Stat3” value on Stat3 is “blocks nuclear translocation of IL-6-induced Stat3 efficiently”.
Consider `Nc1nc(SCc2cccnc2)[nH]c(=O)c1NC(=O)c1ccco1` [C5, reference compound], for which the “dimerization of Stat5a” value at Stat5a is given as “did not inhibit dimerization of Stat5a”. The “nuclear Stat5 expression in explant organ cultures” value in the assay on Stat5a/b is reported as “Intensive positive immunostaining for nuclear Stat5”.
